One assay concerns stage 3 immature neurons. As to the kind of experiment: HD-DoE 8-factor experiment for stage 4 recipe (FIG. 27, 28, 31). The class given is cell-based, human. As to the method:
To further differentiate the cells to a mature neuronal identity, additional HD-DoE experiments were performed on the cells that were cultured in stage 1, stage 2 and stage 3 differentiation media. After 4 days, gene expression of cells in different combinatorial conditions were investigated. At this time, we focused on maximal expression of more mature dopaminergic genes such as NR4A2, PITX3 and TH (Tiklová et al. (2020) Nat Commun. 11:2434; Fiorenzano et al. (2021) Nat Commun., 12:7302). In one model, cells were treated with a combinatorial matrix with eight inputs including CHIR99021, BDNF, GDNF, Rosiglitazone, GW7647, DBZ and heparin.
To assess the impact of elimination of each validated factor identified in Example 5 for the stage 3 and stage 4 recipes, we used dynamic profile analysis and compared the expression level of genes of interest in absence of each finalized factor while others are present.
In the stage 4 recipe, each of six finalized factors were excluded while other factors were present and the expression levels of NR4A2 and PITX3 were assessed compared to the presence of all factors.

Assay [1] has as its system human pluripotent stem cells. As to the kind of experiment: HD-DoE 13-factor experiment for stage 1 recipe, gene expression modeled after 3-day treatment; dynamic profile and factor criticality analysis. The format is cell-based. The essentials:
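Human pluripotent stem cells given 13-factor effector combinations (e.g. LDN193189, CHIR99021, PD0325901) for 3 days; expression of 53 preselected genes modeled, focusing on OTX2, DMBX1, FOXA2, LMX1A and GBX2. Factor criticality assessed by removing each of five finalized factors and comparing with all five present.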

For assay [2], the system named is stage 1 neural stem cells. As to the kind of experiment: HD-DoE 12-factor experiment for stage 2 recipe (first model, FIG. 5-7, 12). The format is cell-based, human. Particulars: for factor contribution: positive impact. An excerpt: To further guide the differentiation of midbrain-committed neural stem cells to neural progenitor cells at stage 2, we performed an additional HD-DoE experiment. We thereby obtained additional gene regulatory models that were used for preparation of differentiation protocol. The basis of this was a 12-factor HD-DoE experiment with focus on initiation of differentiation of cells toward midbrain neural progenitor cells for an additional 3 days after termination of stage 1 treatment. Here, we focused on expression of LMX1A and FOXA2 in neural progenitor cells with low to zero expression of GBX2. LMX1A had significant high expression level in the model with value of 47888. Therefore, we used optimization setting for this gene to identify the positive factors. The factors in this experiment included SC79, MK2206, ZM336372, PD0325901, CHIR99021, A 83-01, TTNPB, AGN193109, GW3965, SR9243, Purmorphamine and GSI-XX.
To assess the impact of elimination of each validated factor, we used dynamic profile analysis and compared the expression level of genes of interest in absence of each finalized factor while others are present.
In the stage 2 recipe, each of the six finalized factors were removed while the other five factors were present and the expression levels of FOXA2, LMX1A and GBX2 were assessed, compared to the levels in the presence of all factors. According to the first experiment model, the absence of TTNPB lead to a rise of GBX2 expression, while the value of FOXA2 and LMX1A reduced drastically from 10,000 to 0 and 30,000 to 15,000, respectively. The absence of A 83-01 reduced the expression of FOXA2 from 10,000 to 7000, however, as expected, the value of LMX1A increased from 30,000 to 40,000. […] According to the second experiment model, the absence of BMP7 and MK2206 both reduced the level of FOXA2 while increasing the value of LMX1A, with BMP7 as the main effector that led to 0 expression of FOXA2.

[3] abbreviates: dynamic profile / model, 12 effectors.

Entries after “also recorded” stand apart in the source; their conditions may differ.

`Cc1c[nH]c(-c2cnc(NCCNc3ccc(C#N)cn3)nc2-c2ccc(Cl)cc2Cl)n1` [CHIR99021]: the “impact on expression level of PITX3” value in the assay on stage 3 immature neurons (dynamic profile, 8 effectors) is “did not have a meaningful effect”. In addition, the factor contribution is on record as 20.7 with stage 3 immature neurons (model maximized for NR4A2, negative impact); 15.6 in assay [1] (model optimized for maximum expression of FOXA2, positive effect); 13.5 in assay [1] (model optimized for maximum expression of OTX2, positive impact, 3-day treatment); 8.3 in assay [2] (model optimized for LMX1A); 10.7 in assay [2] (model optimized for maximum expression of FOXA2). The “impact on expression of FOXA2” value in assay [1] (dynamic profile, 13 effectors) is given as “positive impact”; in assay [2] (setting [3]), “reduces”. The “impact on expression of OTX2” value in assay [1] (dynamic profile, 13 effectors) is on record as “positive impact”. The “expression level of LMX1A in absence of the factor” value in assay [1] (stage 1 recipe, other four factors present, 300 with all five factors) is “reduced”. Also, the “expression level of FOXA2 in absence of the factor” value in assay [1] (stage 1 recipe, other four factors present, 600 with all five factors) is on record as “reduced”. For the same compound, the “expression level of DMBX1 in absence of the factor” value in assay [1] (stage 1 recipe, other four factors present, 3000 with all five factors) is given as “reduced”. Further, in assay [1] (stage 1 recipe, other four factors present, 12000 with all five factors), the “expression level of OTX2 in absence of the factor” value was “reduced”. In addition, in assay [2] (setting [3]), the “impact on expression of LMX1A” value is on record as “positive effect; also recorded: positive impact”. Besides, the “impact on expression level of GBX2” value in assay [2] (dynamic profile, 12 effectors) is given as “increases”.
